In ChEMBL document CHEMBL1201862, “PubChem BioAssay data set” (2004):
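Grown in 96-well plates, cells were treated for 48 hours with each compound at five concentrations. Insufficient inhibition: endpoint recorded as highest concentration tested. Here, GI50 denotes the concentration required for 50% inhibition of growth.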 Calls of active or inactive are those of the source. No stated cut-off is given here; in the data, active = GI50 up to about 1.1 µM and inactive = higher.

Key:
Experiment in all cases: growth of human tumour cells (NCI), 48 h
LOX IMVI = system: LOX IMVI
SK-OV-3 = system: SK-OV-3
NCI-H226 = system: NCI-H226
RXF 393 = system: RXF 393
786-0 = system: 786-0
DMS-114 = system: DMS-114
M19-MEL = system: M19-MEL
HCC 2998 = system: HCC 2998
XF498 = system: XF498
RPMI-8226 = system: RPMI-8226
SF-539 = system: SF-539
HCT-116 = system: HCT-116
HOP-18 = system: HOP-18
SK-MEL-28 = system: SK-MEL-28
SF-268 = system: SF-268
OVCAR-8 = system: OVCAR-8
NCI-H522 = system: NCI-H522
SN12C = system: SN12C
CAKI-1 = system: CAKI-1
OVCAR-5 = system: OVCAR-5
SW-620 = system: SW-620
K562 = system: K562
DLD-1 = system: DLD-1
HT-29 = system: HT-29
NCI-H460 = system: NCI-H460
HOP-92 = system: HOP-92
U-251 = system: U-251
SK-MEL-5 = system: SK-MEL-5
LXFL 529 = system: LXFL 529
IGROV-1 = system: IGROV-1
OVCAR-4 = system: OVCAR-4
HCT-15 = system: HCT-15
M14 = system: M14
ACHN = system: ACHN
NCI-H23 = system: NCI-H23
UO-31 = system: UO-31
SR = system: SR
TK-10 = system: TK-10
SK-MEL-2 = system: SK-MEL-2
SNB-78 = system: SNB-78
SF-295 = system: SF-295
UACC-62 = system: UACC-62
KM12 = system: KM12
UACC-257 = system: UACC-257
CCRF-CEM = system: CCRF-CEM
EKVX = system: EKVX
OVCAR-3 = system: OVCAR-3
Malme-3M = system: Malme-3M
HL-60 = system: HL-60
SNB-19 = system: SNB-19
HOP-62 = system: HOP-62
MOLT-4 = system: MOLT-4
A549 = system: A549
DU-145 = system: DU-145
A498 = system: A498
MCF7 = system: MCF7
DMS-273 = system: DMS-273
MDA-N = system: MDA-N
KM-20L2 = system: KM-20L2
T47D = system: T47D
NCI/ADR-RES = system: NCI/ADR-RES
Hs-578T = system: Hs-578T
BT-549 = system: BT-549
SNB-75 = system: SNB-75
PC-3 = system: PC-3
COLO 205 = system: COLO 205
MDA-MB-435 = system: MDA-MB-435

O=C1OC(CC(=O)c2ccc(F)cc2)C(Cl)=C1Cl (stereo not drawn)
GI50 (LOX IMVI): 16.8 µM (inactive)
GI50 (SK-OV-3): 49 µM (inactive)
GI50 (NCI-H226): 18.5 µM (inactive)
GI50 (RXF 393): 21.6 µM (inactive)
GI50 (786-0): 18.5 µM (inactive)
GI50 (DMS-114): 40.3 µM (inactive)
GI50 (M19-MEL): 73.3 µM (inactive)
GI50 (HCC 2998): 16.5 µM (inactive)
GI50 (XF498): 26.7 µM (inactive)
GI50 (RPMI-8226): 34.2 µM (inactive)
GI50 (SF-539): 19 µM (inactive)
GI50 (HCT-116): 23.3 µM (inactive)
GI50 (HOP-18): 17.9 µM (inactive)
GI50 (SK-MEL-28): 43.3 µM (inactive)
GI50 (SF-268): > 10 µM (inactive)
GI50 (OVCAR-8): 19.4 µM (inactive)
GI50 (NCI-H522): 18.9 µM (inactive)
GI50 (SN12C): 19.4 µM (inactive)
GI50 (CAKI-1): 39.4 µM (inactive)
GI50 (OVCAR-5): 24.5 µM (inactive)
GI50 (SW-620): 23.3 µM (inactive)
GI50 (K562): 33 µM (inactive)
GI50 (DLD-1): 21.6 µM (inactive)
GI50 (HT-29): 18.2 µM (inactive)
GI50 (NCI-H460): 21.5 µM (inactive)
GI50 (HOP-92): 20 µM (inactive)
GI50 (U-251): 20 µM (inactive)
GI50 (SK-MEL-5): 25.5 µM (inactive)
GI50 (LXFL 529): 18 µM (inactive)
GI50 (IGROV-1): 27.2 µM (inactive)
GI50 (OVCAR-4): 19.6 µM (inactive)
GI50 (HCT-15): 18.4 µM
GI50 (M14): 22.9 µM (inactive)
GI50 (ACHN): 34.4 µM (inactive)
GI50 (NCI-H23): 29.6 µM (inactive)
GI50 (UO-31): 22.3 µM (inactive)
GI50 (SR): 27.2 µM (inactive)
GI50 (TK-10): 40.2 µM (inactive)
GI50 (SK-MEL-2): 22.4 µM (inactive)
GI50 (SNB-78): 37.9 µM (inactive)
GI50 (SF-295): > 100 µM (inactive)
GI50 (UACC-62): 17 µM (inactive)
GI50 (KM12): 16.7 µM (inactive)
GI50 (UACC-257): 16.9 µM (inactive)
GI50 (CCRF-CEM): 29.4 µM (inactive)
GI50 (EKVX): 48.4 µM (inactive)
GI50 (OVCAR-3): 22.1 µM (inactive)
GI50 (Malme-3M): 17.2 µM (inactive)
GI50 (HL-60): 24.7 µM (inactive)
GI50 (SNB-19): 22.3 µM (inactive)
GI50 (HOP-62): 32.1 µM (inactive)
GI50 (MOLT-4): 29 µM (inactive)
GI50 (A549): 40 µM (inactive)

C=CC/C=C/Cc1csc(C(C)(C)C(O)C/C=C/C(=C)CCNC(=O)OC)n1 (stereo not drawn)
GI50 (DU-145): > 100 µM (inactive)
GI50 (A498): > 60.5 µM (inactive)
GI50 (LOX IMVI): 44.6 µM (inactive)
GI50 (SK-OV-3): > 85.3 µM (inactive)
GI50 (NCI-H226): > 100 µM (inactive)
GI50 (RXF 393): > 63.4 µM (inactive)
GI50 (MCF7): 96.2 µM (inactive)
GI50 (786-0): > 100 µM (inactive)
GI50 (DMS-114): < 0.0132 µM (active)
GI50 (M19-MEL): 25.5 µM (inactive)
GI50 (HCC 2998): > 95.3 µM (inactive)
GI50 (XF498): > 50 µM (inactive)
GI50 (RPMI-8226): 30.7 µM (inactive)
GI50 (SF-539): > 100 µM (inactive)
GI50 (HCT-116): 0.679 µM (active)
GI50 (DMS-273): 3.26 µM (inactive)
GI50 (SK-MEL-28): > 87.1 µM (inactive)
GI50 (SF-268): 80.4 µM (inactive)
GI50 (OVCAR-8): > 73.5 µM (inactive)
GI50 (NCI-H522): 19.1 µM (inactive)
GI50 (SN12C): > 100 µM (inactive)
GI50 (CAKI-1): > 67 µM (inactive)
GI50 (OVCAR-5): > 100 µM (inactive)
GI50 (SW-620): 26.7 µM (inactive)
GI50 (K562): 0.845 µM (active)
GI50 (DLD-1): 83.4 µM (inactive)
GI50 (MDA-N): 45.8 µM (inactive)
GI50 (HT-29): 48.8 µM (inactive)
GI50 (NCI-H460): 29.5 µM (inactive)
GI50 (HOP-92): 20.6 µM (inactive)
GI50 (U-251): 74.5 µM (inactive)
GI50 (SK-MEL-5): 1.17 µM (inactive)
GI50 (LXFL 529): 21.2 µM (inactive)
GI50 (KM-20L2): 51.2 µM (inactive)
GI50 (T47D): > 100 µM (inactive)
GI50 (NCI/ADR-RES): 75.7 µM (inactive)
GI50 (IGROV-1): 28.4 µM (inactive)
GI50 (Hs-578T): > 100 µM (inactive)
GI50 (BT-549): 3.33 µM (inactive)
GI50 (OVCAR-4): > 57.3 µM (inactive)
GI50 (HCT-15): 44.1 µM
GI50 (M14): 43.5 µM (inactive)
GI50 (ACHN): 49.7 µM (inactive)
GI50 (NCI-H23): 0.245 µM (active)
GI50 (UO-31): > 71.3 µM (inactive)
GI50 (SR): 0.492 µM (active)
GI50 (TK-10): > 100 µM (inactive)
GI50 (SNB-75): 43 µM (inactive)
GI50 (PC-3): > 100 µM (inactive)
GI50 (COLO 205): 59.7 µM (inactive)
GI50 (SK-MEL-2): > 100 µM (inactive)
GI50 (SF-295): 1.28 µM (inactive)
GI50 (MDA-MB-435): 49.7 µM (inactive)
GI50 (UACC-62): 44.4 µM (inactive)
GI50 (KM12): > 60.3 µM (inactive)
GI50 (UACC-257): 1.49 µM (inactive)
GI50 (CCRF-CEM): 34.9 µM (inactive)
GI50 (EKVX): 27.9 µM (inactive)
GI50 (OVCAR-3): 24.8 µM (inactive)
GI50 (Malme-3M): > 91.8 µM (inactive)
GI50 (HL-60): 9.71 µM (inactive)
GI50 (SNB-19): > 100 µM (inactive)
GI50 (HOP-62): > 100 µM (inactive)
GI50 (MOLT-4): 36.1 µM (inactive)
GI50 (A549): 41.4 µM (inactive)
